Laboratory results: ChEMBL document CHEMBL1201862, “PubChem BioAssay data set” (2004)
Activity calls are given as the source filed them.

Assays:
cells [1] = type: functional, cell-based
cells [2] = type: functional, cell-based; remark: listed apart in the source
[3] = target: ADP-ribosylation factor GTPase-activating protein 1 (Rattus norvegicus, UniProt Q62848); test: Fluorescence polarization-based biochemical high throughput dose response screening assay to identify inhibitors of ADP-ribosylation factor GTPase activating protein 1 (ARFGAP1).; type: functional
[4] = target: Arf-GAP with SH3 domain, ANK repeat and PH domain-containing protein 1 (Homo sapiens, UniProt Q9ULH1); type: functional;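 further: biochemical fluorescence polarization dose–response screen measuring inhibition of ASAP1; ASAP1 GAP domain stimulating GTP hydrolysis by truncated human ARF1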
Estrogen receptor beta = Estrogen receptor beta (Homo sapiens, UniProt Q92731); test: blockers of SRC-3 recruitment to ERβ – biochemical, ELISA, streptavidin-HRP readout, orthogonal assay, confirmation (AID 1060)
Insulin-degrading enzyme [5] = target: T1, Insulin-degrading enzyme (Homo sapiens, UniProt P14735); test: recombinant IDE activation, cell-free – biochemical, fluorescence polarization, counter-screen for IDE activator project, dose response (AID 588681)
T1 sequence (P14735 whole entry): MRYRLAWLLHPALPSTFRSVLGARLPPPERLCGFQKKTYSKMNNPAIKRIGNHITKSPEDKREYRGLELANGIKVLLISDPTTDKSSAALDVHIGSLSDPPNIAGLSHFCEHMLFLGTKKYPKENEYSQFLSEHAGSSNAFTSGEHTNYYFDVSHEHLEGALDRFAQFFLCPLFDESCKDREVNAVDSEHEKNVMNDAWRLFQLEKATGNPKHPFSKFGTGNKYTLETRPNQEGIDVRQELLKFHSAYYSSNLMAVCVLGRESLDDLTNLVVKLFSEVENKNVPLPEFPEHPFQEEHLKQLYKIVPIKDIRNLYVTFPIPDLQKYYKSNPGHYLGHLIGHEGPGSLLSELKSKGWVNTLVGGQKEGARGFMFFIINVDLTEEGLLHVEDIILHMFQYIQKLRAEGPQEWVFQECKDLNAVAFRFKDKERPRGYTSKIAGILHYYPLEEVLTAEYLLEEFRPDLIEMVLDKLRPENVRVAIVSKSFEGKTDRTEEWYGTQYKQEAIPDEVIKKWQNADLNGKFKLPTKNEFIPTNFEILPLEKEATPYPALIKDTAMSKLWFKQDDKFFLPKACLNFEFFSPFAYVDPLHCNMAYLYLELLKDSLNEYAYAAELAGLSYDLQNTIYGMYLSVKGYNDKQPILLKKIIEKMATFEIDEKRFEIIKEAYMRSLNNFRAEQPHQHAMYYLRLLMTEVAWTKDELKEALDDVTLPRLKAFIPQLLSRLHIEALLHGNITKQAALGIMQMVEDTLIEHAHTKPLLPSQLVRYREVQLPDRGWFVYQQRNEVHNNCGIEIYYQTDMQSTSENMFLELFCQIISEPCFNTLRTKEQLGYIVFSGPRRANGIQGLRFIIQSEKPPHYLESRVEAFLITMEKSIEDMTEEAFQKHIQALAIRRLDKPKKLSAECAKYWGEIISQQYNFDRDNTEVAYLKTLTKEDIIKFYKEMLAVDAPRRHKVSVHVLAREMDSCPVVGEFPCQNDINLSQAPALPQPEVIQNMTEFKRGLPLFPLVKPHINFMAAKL

Insulin-degrading enzyme [6] = target: T1, Insulin-degrading enzyme; test: cellular IDE activation of Abeta substrate cleavage – fluorescence polarization, HEK cells, dose response (AID 588439); type: functional, cell-based
HEK293 [7] = test: membrane integrity loss in HEK cells – cell-based, fluorescence, cytotoxicity control for IDE activator project, dose response (AID 588440); type: functional; settings: Homo sapiens;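 further: cytotoxicity by LDH release measuring loss of membrane integrity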
HEK293 [8] = test: optical interference in Abeta FP readout, dose response, artefact control for IDE activator project, biochemical, fluorescence polarization (AID 588442); type: functional, cell-based; settings: Homo sapiens
Protein Tat = target: T2, Protein Tat (Human immunodeficiency virus type 1 group M subtype B (isolate HXB2)(HIV-1), UniProt P04608); type: functional;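 further: tat binding to TAR RNA read out by fluorescence polarization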
T2 sequence (P04608 whole entry): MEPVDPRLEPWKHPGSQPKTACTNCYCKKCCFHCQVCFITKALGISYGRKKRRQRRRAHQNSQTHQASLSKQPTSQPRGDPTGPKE

[9] = viability loss in THP-1 monocytes – THP-1 cells, cytotoxicity control for Vif-APOBEC3G degradation inhibitor project, dose response (AID 1117359); type: functional; settings: THP-1
[10] = reduction of Shn3 3'UTR-driven luciferase in osteoblasts – cell-based, Clone20 osteoblasts, firefly luciferase, cherry-picked, dose response (AID 624132); type: functional;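 further: firefly luciferase luminescence from reporter carrying the Shn3 3'UTR in osteoblasts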
[11] = loss of viability in HepG2 cells – cell-based, CellTiter-Glo, cherry-picked, cytotoxicity control for Shn3 inhibitor project, dose response (AID 624134); type: functional
[12] = non-specific 3'UTR reporter inhibition in Clone20-Shn3RL – cell-based, Renilla luciferase, cherry-picked, counter-screen for Shn3 inhibitor project, dose response (AID 624133); type: functional
[13] = target: Low molecular weight phosphotyrosine protein phosphatase (Homo sapiens, UniProt P24666); type: functional; settings: read-out: IC50_Mean;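 further: Dose-response confirmation assay measuring inhibition of LMPTP enzyme activity by fluorescence intensity read-out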
Major prion protein = Major prion protein (Homo sapiens, UniProt P04156); type: functional, cell-based
cells [14] = test: cells
[15] = target: FAD-linked sulfhydryl oxidase ALR (Homo sapiens, UniProt P55789); test: ALR-catalysed DTT oxidation blockers – biochemical, H2O2 detection, luminescence, cherry-pick, dose response (AID 493248)
[16] = target: SWI/SNF-related matrix-associated actin-dependent regulator of chromatin subfamily A member 2 (Homo sapiens, UniProt P51531); test: Luminescence-based cell-based high throughput dose response assay to identify activators of the function of SWI/SNF related, matrix associated, actin dependent regulator of chromatin, subfamily a, member 2 (SMARCA2, BRM).; type: functional
[17] = Counterscreen for activators of the function of SWI/SNF related, matrix associated, actin dependent regulator of chromatin, subfamily a, member 2 (SMARCA2, BRM): Luminescence-based cell-based high throughput dose response assay to identify non-selective compounds using the VP16 reporter assay.; type: functional
[18] = target: Fructose-bisphosphate aldolase (Mycobacterium tuberculosis, UniProt P9WQA3); test: Fluorescence-based biochemical high throughput dose response assay for inhibitors of the fructose-bisphosphate aldolase (FBA) of M. tuberculosis.; type: functional
[19] = target: Nuclear receptor subfamily 5 group A member 2 (Homo sapiens, UniProt O00482); type: functional, cell-based;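 further: HEK293T cells transfected with LRH-1 and a StAR promoter luciferase reporter; potency for inhibitors that lower LRH-1 driven reporter light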
Steroidogenic factor 1 = Steroidogenic factor 1 (Homo sapiens, UniProt Q13285); test: Counterscreen for inverse agonists of the liver receptor homolog-1 (LRH-1; NR5A2): Luminescence-based cell-based high throughput dose response assay to identify inverse agonists of the Steroidogenic Factor 1 Nuclear Receptor (SF1; NR5A1).; type: functional
[20] = nonselective StAR promoter luciferase inhibitors – cell-based, luminescence, luciferase reporter, counter-screen for LRH-1 inverse agonist project, dose response (AID 651969); type: functional
cells [21] = type: functional, cell-based; remark: listed apart in the source
[22] = target: T3, Trace amine-associated receptor 1 (Homo sapiens, UniProt Q96RJ0); test: Fluorescence-based cell-based high throughput dose response assay to identify agonists of the human trace amine associated receptor 1 (TAAR1).; type: functional
T3 sequence (Q96RJ0 whole entry): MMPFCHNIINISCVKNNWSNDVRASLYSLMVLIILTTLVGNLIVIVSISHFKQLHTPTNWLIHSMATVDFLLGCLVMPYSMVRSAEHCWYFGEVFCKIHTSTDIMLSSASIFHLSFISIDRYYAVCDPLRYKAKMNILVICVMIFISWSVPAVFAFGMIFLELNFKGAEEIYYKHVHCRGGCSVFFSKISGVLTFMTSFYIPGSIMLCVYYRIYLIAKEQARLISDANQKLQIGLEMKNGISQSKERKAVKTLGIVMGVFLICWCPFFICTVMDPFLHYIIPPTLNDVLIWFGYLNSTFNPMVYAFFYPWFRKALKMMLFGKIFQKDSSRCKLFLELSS

[23] = target: T3, Trace amine-associated receptor 1; test: Counterscreen for agonists of the human trace amine associated receptor 1 (hTAAR1): Fluorescence-based cell-based high throughput dose response assay to identify hTAAR1 agonist that also desensitize TAAR1 receptor response.; type: functional
cells [24] = type: functional, cell-based; remark: listed apart in the source
[25] = NIH-3T3 fibroblast cytotoxicity, dose response, cytotoxicity control, cell-based, fluorescence, Alamar Blue, secondary assay (AID 2327); type: functional;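 further: NIH-3T3 mouse fibroblasts cultured with fluconazole at 8 µg/mL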
[26] = fluconazole-exposed Candida albicans growth modulators – fluorescence, retest, confirmation (AID 2467); type: functional, cell-based

SMILES: Cc1ccc2nc(SCC(=O)N3CCCCC3)nc(=O)n2c1
- EC50 (cells [1]): > 350 µM (not active)
- EC50 (cells [2]): > 350 µM (not active)
- IC50 [3]: 32 µM (inactive)
- IC50 [4]: 45.9 µM (inactive)

SMILES: COc1cc(C2Nc3cccc4cccc(c34)N2)cc(OC)c1O
- IC50 (Estrogen receptor beta): 5.04 µM (not active)
- EC50 (Insulin-degrading enzyme [5]): > 54.7 µM (inactive)
- EC50 (Insulin-degrading enzyme [6]): > 54.7 µM (inactive)
- IC50 (HEK293 [7]): > 89.2 µM (inactive)
- EC50 (HEK293 [8]): > 55.9 µM (inactive)
- IC50 (Protein Tat): 13.1 µM (inconclusive)
- CC50 [9]: 2.1 µM (active)

SMILES: COc1ccccc1CNc1nc(Nc2cccc(-c3cnco3)c2)c2sccc2n1
- AC50 [10]: 5.61 µM (active)
- AC50 [11]: 45.6 µM (active)
- AC50 [12]: 9.22 µM (active)
- IC50 [13]: 42.4 µM (inactive)

SMILES: COC(=O)c1sc(N=C(S)NNC(=O)c2c(Br)c(C)nn2C)c(C(=O)OC)c1C
- IC50 (Major prion protein): 1.16 µM (active)
- IC50 (cells [14]): > 138 µM (inactive)

SMILES: Cc1ccc(O)c(CNc2nc3ccccc3n2C)c1
- AC50 [15]: 9.83 µM (active)
- EC50 [16]: > 91.2 µM (inactive)
- EC50 [17]: > 91.2 µM (inactive)

SMILES: Cc1cc(OC(C)C(=O)NCCCN2CCOCC2)c2c(C)cc(=O)oc2c1 (centres undefined)
- IC50 [18]: 1.32 µM (active)

SMILES: O=C(COc1ccc(S(=O)(=O)N2CCCC2)cc1Cl)Nc1ccc2c(c1)OCO2
- IC50 [19]: 35.9 µM (inactive)
- IC50 (Steroidogenic factor 1): 9.54 µM (active)
- IC50 [20]: 35.9 µM (inactive)

SMILES: COc1ccc2c(c1)C(SCC(=O)NCCc1ccccc1)CC(C)(C)O2 (centres undefined)
- IC50 (cells [21]): > 29.9 µM (inactive)
- EC50 [22]: 1.04 µM (active)
- IC50 [23]: 2.31 µM (active)
- EC50 (cells [24]): > 29.9 µM (inactive)

SMILES: COc1ccc(-n2nnnc2SCC(=O)c2ccc3c(c2)OCCO3)c(OC)c1
- IC50 [3]: 17.7 µM (inactive)
- IC50 [4]: 12.6 µM (inactive)

SMILES: COc1ccc(NC(=O)c2ccc([N+](=O)[O-])o2)cc1
- EC50 [25]: 28.2 µM (active)
- EC50 [26]: 3.55 µM (active)
- EC50 [16]: > 91.1 µM (inactive)
- EC50 [17]: > 91.1 µM (inactive)
